Data taken from patent US5906922A, “Delivery of nucleic acids” (Commonwealth Scientific and Industrial Research Organisation, priority 1994, dated 1999).
Where a SMILES comes first, the peptide text is derived from it. The star is where a group is joined. NHC(CH2O-Palmitoyl)3 = CCCCCCCCCCCCCCCC(=O)OCC(COC(=O)CCCCCCCCCCCCCCC)(COC(=O)CCCCCCCCCCCCCCC)N*; X5 = CCCCCCCCCCCCCCCC(=O)OCC(CO)(COC(=O)CCCCCCCCCCCCCCC)N*; X1 = CCCCCCCCCCCCCCCC(=O)OCC(CO)(CO)N*; NHC(CH2OH)3 = OCC(CO)(CO)N*

Columns and labels:
[1] = test system: Cos 1 cells; test: Transfection of pSVLCAT, CAT assay, Cos 1; format: cell-based, African Green Monkey; settings: for CAT activity (mean): 25 μl lysate, 135 min 37° C.; for Transfection (CAT): Table 1, Cos 1, optimised level of agent; for transfection, number of palmitates: R1-R4 experiment a, Cos 1, K2 A linker
Protocol: To test the transfection properties of the lead compound K3ATP3 (VerafectinA3), whole uncut plasmid carrying the gene encoding CAT (chloramphenicol acetyl transferase) under the control of the SV40 late promoter, pSVLCAT (Cameron, F. H. and Jennings, P. A. (1989) PNAS 86, 9139-9143) was mixed with the test agent and put on Cos 1 cells under various conditions. After 48 hours of culture the level of secreted CAT was assayed from the culture medium.
Solution I: 1 μg Plasmid DNA in 500 μl Dulbeccos Modified Eagles Medium (DME)
Solution II: 0-20 μl VerafectinA3 (2.5 mg/ml 25% DMSO) in 500 μl DME, Vortex
Combine solution I and II, vortex briefly and incubate at room temperature for 10 min.
Add mix to washed cells in 60 mm tissue culture dishes (seeded 0.5×10^6 /dish previous day) for 6 hrs at 37° C., 5% C02. Add 2 ml DME+10% FCS for remainder of 48 hrs. Assay CAT levels in tissue culture medium (Sleigh, M. J. (1986) Anal. Biochem. 156.251-256).
a--Compare VerafectinA3 dissolved in DMSO or ethanol.
b--Compare VerafectinA3 on cells 6 hrs to overnight. VerafectinA3 at 10 mg/ml in 100% solvent was diluted to 2.5 mg/ml with water.
Transfection was carried out as for experiment 1. VerafectinA3 was left in contact with the cells for varying times.
Protocol was the same for the Verafectins as described above. Lipofectamine protocol was according to manufacturers instructions. Cos 1 cells were seeded at 5×10^5 /60 mm dish and adhered overnight in DME with 10% FCS.
Solution A: 0.5 μg pSVLCAT/60 mm dish.
Solution B: Lipofectamine 10 and 15 μl 2 mg/ml (mixed formulation 3:1 with DOPE).
OR; VerafectinA3 and VerafectinG2 20 μl 2 mM (2.8 and 2.3 mg/ml respectively) stock.
OR; VerafectinG2 was also tested with an equimolar amount of DOPE. VerafectinG2 and DOPE were mixed in DDME and vortexed for 30 seconds before use. Solutions A and B were combined before overlaying on washed cells.
The serum free incubation period in the presence of test agents and DNA was 6 hrs, then 1 ml DME+10% FCS was added. At 24 hours medium was changed to 2 ml fresh DME+10% FCS until harvest at 48 hrs.
(§1) Cell lines Cos 1 or CHO were transfected with 0.5 μg of pSVLCAT or 2 μg of pPGKlacZ plasmid using a range of concentrations of each transfection compound. The optimal concentration of compound, that is the concentration giving the highest level of CAT at 48 hours or the greatest percentage of lac z (β-galactosidase) staining cells at 24 hours was used to collate data for Table 1. As all compounds were not tested in a single experiment, absolute figures indicating transfection were not used. Rather, symbols are used to indicate the transfection efficiency relative to Lipofectamine (BRL), which was included as a control in all experiments. Table 1 thus indicates the relative efficiencies of a number of compounds in mediating the transfection of at least one cell type.
(§2) All test lipopeptide reagents were originally dissolved at 10 mM in 75% DMSO, and subsequently diluted with water to make a 2 mM stock stored at 4° C. Volumes of 2 mM stock lipopeptide ranging from 2 μl to 15 μl were diluted in 500 μl of DDME. 1 μg of plasmid pSVLCAT was separately diluted in 500 μl of DDME. Solutions were combined for 10-20 min at room temperature before adding to 500 μl of DDME in 60 mm dishes of subconfluent CHO cells (2×10^5 day-1) or Cos 1 cells (5×10^5 day-1); washed free of serum with DDME.
(§3) Cells were incubated for 6 hrs under standard conditions of 37° C. and 5% CO2 for 6 hours. 1.5 ml of DME/Hams+10% FCS (CHO) or DME+10% FCS (Cos 1) was added to the cells for overnight incubation. Fresh DME/Hams+10% FCS or DME+10% FCS was used to replace the medium for a further 24 hours prior to harvest. Cell lysates were prepared and assayed for CAT activity as described above. For Cos 1 cells, culture supernatants were assayed for CAT activity.
For transfection of pSVLCAT and subsequent assay of CAT enzyme, experiments "a" and "b" were carried out as described above.

[2] = test system: CHO cells; test: Transfection of pSVLCAT, CAT assay, CHO; format: cell-based, Chinese Hamster; settings: for Transfection (CAT): Table 1, CHO, optimised level of agent
Protocol: Protocol was the same for Verafectin and Transfectam (see above) with the exception that 0.5 μg of pSVLCAT DNA was used /60 mm dish.
Lipofectamine protocol was according to manufacturer's instructions. 0.5 μg pSVLCAT/60 mm dish. CHO cells seeded 1×10^5 /60 mm dish and adhered overnight in DME/Hams medium with 10% FCS.
Transfectam 5 or 10 μl 1mg/400 μl stock solution.
Lipofectamine 5 or 10 μl 2 mg/ml (mixed formulation 3:1 with DOPE). VerafectinA3 (K3ATP3) and VerafectinG2 (K3G[Glycine]TP2) each at 5, 10 and 15 μl of 2 mM (2.8 and 2.3 mg/ml respectively) stock.
The serum free incubation period in the presence of test agents and DNA was 6 hours, then 1 ml DME/Hams+10% FCS was added. At 24 hrs the medium was changed to 2 ml of fresh DME/Hams+10% FCS until harvest at 48 hrs.
as §1, §2, §3
a. Using the standard transfection procedure described above, and 1 μg plasmid pSVLCAT, these formulations were tested on CHO cells at a single concentration equivalent to 10 μl of Verafectin A2 (2 mM) per sample and compared to unformulated compound and Lipofectamine in the same cell type. CAT production was assayed 48 hours after transfection.

[3] = test system: Cos 1 cells; test: β-gal microtitre plate transfection assay, Cos 1; format: cell-based, African Green Monkey
Source text: For experiment "c", a plasmid pPGKlaczNLS encoding β-galactosidase under the control of the mouse PGK promoter (kind gift from G.Hannan) or pSVGAL which utilises the SV40 early promoter (Sleigh, M. J. and Lockett, T. J. (1985). EMBO J. 4:3831-3837),was transfected. This experiment and assay were modified from Feigner et al J. Biol Chem. 269(4) 2550-2561 1994. This protocol allows the simultaneous assessment of 72 different combinations and concentrations of DNA and test agent in a microtitre tray. […] Cytotoxicity was assessed using alamar blue, and a sample graph is shown for experiment a.
Compounds were tested for their ability to transfect either the CAT or β-gal gene carried on plasmids, and assayed as described above.
(§4) The ratio of [lipid]/[DNA] at which that maximum was achieved is shown. Experiments shown were carried out in Cos 1 cells, as described above. MTS OD is a measure of relative viabilility of the cells exposed to the different agents, a higher value indicates greater cell viability. * These points were taken from a separate experiment and some slight variation between absolute numbers should be expected between experiments.
Each of these compounds was tested for transfection ability and cytotoxicity on standard cell lines using standard conditions as described above.
(§5) The ratio of [lipid]/[DNA] at which that maximum was achieved is shown in brackets for the two different cell types in the following order; (Cos 1) (CHO). Experiments shown were carried out in Cos 1 cells, as described above. Viability was measured with the dye alamar blue . # Denotes compounds tested in a separate experiment. * Viability in this experiment was determined with MTS. OD is a measure of relative viability of the cells exposed to the different agents, and as with alamar blue, a higher value indicates greater cell viability.

[4] = test system: Cos 1 cells; format: cell-based, African Green Monkey
Protocol: Relative levels of cytotoxicity were also assayed in subsequent experiments using the dye MTS, marketed as Cell titre 96 Aqueous (Promega).
as §4, §5

[5] = "x" peptide experiment a, CHO, 25 μl lysate, 20 min assay at 37° C., optimal level
[6] = "x" peptide experiment b, Cos 1

## CCCCCCCCCCCCCCCC(=O)OCC(CO)(COC(=O)CCCCCCCCCCCCCCC)NC(=O)[C@H](CCCCN)NC(=O)[C@H](CCCCN)NC(=O)[C@@H](N)CCCCN [K2KTP2]
[1]; R1-R4 experiment d, Cos 1, lysine linker
  transfection, dipalmitate versus tripalmitate: significantly less active than the tripalmitate molecule

## CCCCCCCCCCCCCCCC(=O)OCC(CO)(COC(=O)CCCCCCCCCCCCCCC)NC(=O)[C@H](C)NC(=O)[C@H](CCCCN)NC(=O)[C@@H](N)CCCCN [K2ATP2]
[2]; [5]
  CAT activity (mean): 5418 cpm
[1]; [6]
  transfection with second lysine relative to single K: ~5 times
  CAT activity (mean): 62,215 cpm
[1]; "y" linker experiment b, Cos 1
  transfection, linkers A and L compared: very similar activities

## CCCCCCCCCCCCCCCC(=O)OCC(CO)(COC(=O)CCCCCCCCCCCCCCC)NC(=O)[C@H](C)NC(=O)[C@H](CCCCN)NC(=O)[C@H](CCCCN)NC(=O)[C@H](CCCCN)NC(=O)[C@H](CCCCN)NC(=O)[C@@H](N)CCCCN [K5ATP2] (H-KKKKKA-X5)
[2]; [5]
  CAT activity (mean): 132 cpm

## CCCCCCCCCCCCCCCC(=O)OCC(COC(=O)CCCCCCCCCCCCCCC)(COC(=O)CCCCCCCCCCCCCCC)NC(=O)CNC(=O)[C@H](CCCCN)NC(=O)[C@H](CCCCN)NC(=O)[C@@H](N)CCCCN [K3GTP3] (H-KKKG-{NHC(CH2O-Palmitoyl)3})
[2]
  Transfection (CAT): +
[1]
  Transfection (CAT): +/-

## CCCCCCCCCCCCCCCC(=O)OCC(CO)(CO)NC(=O)CNC(=O)[C@H](CCCCN)NC(=O)[C@H](CCCCN)NC(=O)[C@@H](N)CCCCN [K3GTP1] (H-KKKG-X1)
[2]
  Transfection (CAT): +
[1]
  Transfection (CAT): +

## CCCCCCCCCCCCCCCC(=O)OCC(CO)(COC(=O)CCCCCCCCCCCCCCC)NC(=O)[C@H](C)NC(=O)[C@@H](N)CCCCN [K1ATP2]
[1]; [6]
  CAT activity (mean): 12670 cpm

## CCCCCCCCCCCCCC(=O)OCC(COC(=O)CCCCCCCCCCCCC)(COC(=O)CCCCCCCCCCCCC)NC(=O)[C@H](C)NC(=O)[C@H](CCCCN)NC(=O)[C@H](CCCCN)NC(=O)[C@@H](N)CCCCN [K3ATM3]
[3]; Table 2, Cos 1
  ratio [lipid]/[DNA] at which maximum was achieved: 1.39
[3]; Table 2, Cos 1, highest reading of 72 conditions
  units β-gal: 2.86 × 10^-4 units
[3]; Table 3, Cos 1
  ratio [lipid]/[DNA] at which maximum was achieved: 1.39
[3]; Table 3, Cos 1, # tested in a separate experiment
  β-gal (Cos 1): 2.86 × 10^-4
[4]
  MTS OD490-655: 1.22
  Viability (Cos 1): 1.22

## CCCCCCCCCCCCCCCC(=O)OCC(CO)(COC(=O)CCCCCCCCCCCCCCC)NC(=O)[C@H](C)NC(=O)[C@H](CCCCN)NC(=O)[C@H](CCCCN)NC(=O)[C@H](CCCCN)NC(=O)[C@@H](N)CCCCN [K4ATP2] (H-KKKKA-X5)
[1]
  Transfection (CAT): +

## NCCCC[C@H](NC(=O)[C@H](CCCCN)NC(=O)[C@@H](N)CCCCN)C(=O)NCC(=O)NC(CO)(CO)CO [K3GTP0] (H-KKKG-{NHC(CH2OH)3})
[1]
  Transfection (CAT): -

## CCCCCCCCCCCCCCCC(=O)OCC(COC(=O)CCCCCCCCCCCCCCC)(COC(=O)CCCCCCCCCCCCCCC)NC(=O)[C@H](C)NC(=O)[C@H](CCCCN)NC(=O)[C@H](CCCCN)NC(=O)[C@H](CCCCN)NC(=O)[C@H](CCCCN)NC(=O)[C@@H](N)CCCCN [K5ATP3] (H-KKKKKA-{NHC(CH2O-Palmitoyl)3})
[2]; [5]
  CAT activity (mean): 1785 cpm
[2]; "x" peptide experiment c, CHO, 2 hours incubation of 20 μl lysate
  mean level of CAT activity: 6363

## C[C@H](NC(=O)[C@H](CCCCN)NC(=O)[C@H](CCCCN)NC(=O)[C@@H](N)CCCCN)C(=O)NC(CO)(CO)CO [K3ATP0] (H-KKKA-{NHC(CH2OH)3})
[1]
  Transfection (CAT): -

## CCCCCCCCCCCCCCCC(=O)OCC(COC(=O)CCCCCCCCCCCCCCC)(COC(=O)CCCCCCCCCCCCCCC)NC(=O)[C@H](C)NC(=O)[C@H](CCCCN)NC(=O)[C@@H](N)CCCCN [K2ATP3]
[1]
  transfection, number of palmitates: high levels of transfection

## CCCCCCCCCCCCCCCC(=O)OCC(CO)(CO)NC(=O)[C@H](C)NC(=O)[C@H](CCCCN)NC(=O)[C@@H](N)CCCCN [K2ATP1]
[1]
  transfection, number of palmitates: very inefficient

## CCCCCCCCCCCCCCCC(=O)OCC(CO)(COC(=O)CCCCCCCCCCCCCCC)NC(=O)[C@H](C)NC(=O)[C@H](CCCCN)NC(=O)[C@H](CCCCN)NC(=O)[C@@H](N)CCCCN [K3ATP2, trilysine alanine tris dipalmitate]
[2]; CHO, unformulated
  CAT levels relative to Lipofectamine, non-liposome formulation: around 5%
[2]; R1-R4 experiment e, CHO
  CAT activity (mean): 984 cpm
[2]
  Transfection (CAT): +/-
[1]
  Transfection (CAT): +/-
